Measurements published in US20100221351A1, “Controlled Drug Delivery Using a Thermally Responsive Nanocapsule to Augment Cryoablation” (UNIVERSITY OF SOUTH CAROLINA, priority 2009, published 2010).

Assay: Release of trehalose during dialysis into 1 L water at 37° C.
Assay type: physicochemical
Details: 0.3 g trehalose in 2 ml water
Description: FIG. 2. Release of trehalose (0.3 g) into 1 L water during dialysis under 3 conditions: free dissolved, nanoencapsulated (NE) with cooling/heating between 22 and 37° C. (NE22-37C), and nanoencapsulated kept at 37° C. (NE37C) before dialysis.
This nanocapsule has been used to physically encapsulate a small molecular weight hydrophilic trehalose (Mw=342 Da) for its intracellular delivery and controlled release. […] Clearly, the free dissolved trehalose was completely released from the dialysis bag in ˜2 hr, while trehalose release from the other two conditions with nanoencapsulation is much slower. The release for the sample kept 37° C. (i.e., NE37C) reached equilibrium at approximately 4 hours while it is approximately 3 hours for the sample with cooling and heating between 22 and 37° C. (i.e., NE22-37C). Moreover, approximately 11.3 and 4.3 mg trehalose were still retained in the NE37C and NE22-37C samples under the equilibrium state, respectively. […] In other words, a quick release of the nanoencapsulated trehalose can be achieved by thermally cycling the trehalose loaded nanocapsule between 22 and 37° C.

**Q.** With `OC[C@H]1O[C@H](O[C@H]2O[C@H](CO)[C@@H](O)[C@H](O)[C@H]2O)[C@H](O)[C@@H](O)[C@@H]1O` [free dissolved trehalose, trehalose] as the compound, how does the “time to complete release of trehalose from the dialysis bag” value read?
**A.** ~2 h
